Measurements published in US20260138976A1 (Hoffmann-La Roche Inc., priority 2022, published 2026).

Legend:
[1] = target: T1, DGKα (hDGKalpha(1-735)-N-His) (Homo sapiens, UniProt P23743); experiment: In vitro DGK inhibition assay, DGKalpha ADP Glo (in house); format: biochemical; conditions: 4 nM DGKα, 25 μM ATP, 125 uM DLG in liposomes, 1 hour reaction
T1 construct: hDGKalpha(1-735)-N-His; His (N); made in house; host or cells: Sf21 insect cells (baculovirus)
Method in brief: (§1)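 ADP-Glo luminescence measured ADP formed over 1 h by Sf21-expressed full-length human enzymes: DGKα at 4 nM with 25 µM ATP, DGKζ at 2 nM with 50 µM ATP, both on 125 µM DLG in PS/PC liposomes. Dose–response used 11 threefold dilutions at 2% final DMSO.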

primary human T-cells = experiment: IL2 secretion measurements (24 h, CD3-stimulated T-cells, PBS counter screen); format: cell-based; conditions: for Emax IL2 (% activation): CD3 condition, normalised to DMSO (neutral) and 20 μM reference compound A1 = 100%; for EC50: Homo sapiens, T-cell, CD3-stimulated primary human T-cells, IL2 secretion, fitted sigmoidal curve, read-out: Tcell IL2 CD3 EC50
Method in brief: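 IL-2 secretion was measured by ProQuantum or ELISA after 24 h culture of expanded human T-cells with compound, on CD3-antibody-coated plates or PBS counter-screen plates. Dosing used 5–6 points from a 20 or 10 μM final top at 3.333-fold steps in 0.2% DMSO. EC50/Emax were scaled between DMSO and 20 μM reference A1.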

[2] = target: T2, DGKζ (hDGKzeta(1-928)-N-His) (Homo sapiens, UniProt Q13574); experiment: In vitro DGK inhibition assay, DGKzeta ADP Glo (in house); format: biochemical; conditions: 2 nM DGKζ, 50 μM ATP, 125 uM DLG in liposomes, 1 hour reaction
T2 construct: hDGKzeta(1-928)-N-His; His (N); made in house; host or cells: Sf21 insect cells (baculovirus)
T2 sequence (Q13574 whole entry): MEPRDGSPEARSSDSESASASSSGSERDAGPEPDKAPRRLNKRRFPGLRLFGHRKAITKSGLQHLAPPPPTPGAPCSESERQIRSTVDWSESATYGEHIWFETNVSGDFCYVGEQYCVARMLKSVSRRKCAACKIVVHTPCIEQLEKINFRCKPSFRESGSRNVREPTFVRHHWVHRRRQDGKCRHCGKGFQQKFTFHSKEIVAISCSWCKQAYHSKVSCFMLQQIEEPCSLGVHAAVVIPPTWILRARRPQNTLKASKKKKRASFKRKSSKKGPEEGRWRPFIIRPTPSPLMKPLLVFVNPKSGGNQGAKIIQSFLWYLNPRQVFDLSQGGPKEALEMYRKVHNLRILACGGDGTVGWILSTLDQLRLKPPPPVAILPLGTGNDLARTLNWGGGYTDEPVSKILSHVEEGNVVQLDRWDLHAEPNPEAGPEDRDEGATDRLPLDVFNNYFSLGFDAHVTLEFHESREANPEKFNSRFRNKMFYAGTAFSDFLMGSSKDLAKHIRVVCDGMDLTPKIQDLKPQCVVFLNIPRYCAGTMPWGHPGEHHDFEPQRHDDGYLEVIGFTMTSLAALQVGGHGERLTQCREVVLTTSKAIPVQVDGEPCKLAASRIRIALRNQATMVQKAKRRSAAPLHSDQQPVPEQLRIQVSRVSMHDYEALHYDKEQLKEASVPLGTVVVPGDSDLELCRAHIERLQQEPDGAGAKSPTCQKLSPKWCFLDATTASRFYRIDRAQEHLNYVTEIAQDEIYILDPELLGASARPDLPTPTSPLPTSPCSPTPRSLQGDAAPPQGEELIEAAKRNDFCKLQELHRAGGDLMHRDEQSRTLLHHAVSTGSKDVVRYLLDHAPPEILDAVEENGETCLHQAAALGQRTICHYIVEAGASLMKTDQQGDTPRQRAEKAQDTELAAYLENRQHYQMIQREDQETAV
Method in brief: as §1

T1 sequence (P23743 whole entry): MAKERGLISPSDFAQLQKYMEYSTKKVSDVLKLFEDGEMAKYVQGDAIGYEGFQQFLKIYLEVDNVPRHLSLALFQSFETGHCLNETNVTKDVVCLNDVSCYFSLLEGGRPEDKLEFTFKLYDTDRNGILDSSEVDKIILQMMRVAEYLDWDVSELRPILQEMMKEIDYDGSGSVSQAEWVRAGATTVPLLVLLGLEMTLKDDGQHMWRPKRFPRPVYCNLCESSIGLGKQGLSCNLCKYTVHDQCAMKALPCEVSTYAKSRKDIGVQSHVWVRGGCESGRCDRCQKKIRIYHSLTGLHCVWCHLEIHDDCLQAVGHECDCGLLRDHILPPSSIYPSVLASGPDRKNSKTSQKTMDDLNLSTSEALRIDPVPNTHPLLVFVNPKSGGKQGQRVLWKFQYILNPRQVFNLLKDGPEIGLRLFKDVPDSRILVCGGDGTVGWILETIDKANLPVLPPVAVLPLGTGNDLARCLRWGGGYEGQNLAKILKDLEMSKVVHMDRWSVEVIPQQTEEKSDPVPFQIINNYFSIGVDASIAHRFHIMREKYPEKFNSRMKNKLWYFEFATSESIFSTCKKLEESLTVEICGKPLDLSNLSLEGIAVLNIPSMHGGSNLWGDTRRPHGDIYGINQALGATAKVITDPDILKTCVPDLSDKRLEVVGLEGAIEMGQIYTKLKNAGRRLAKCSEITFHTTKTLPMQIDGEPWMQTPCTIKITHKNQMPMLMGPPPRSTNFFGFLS

IC50 [1] [µM]	IC50 [2] [µM]	Compound	Emax IL2 (% activation) (primary human T-cells)	EC50 (primary human T-cells) [µM]
2.64	0.625	N[C@H]1CS(=O)(=O)c2ccc(-c3nnc(N4CCC(F)(F)CC4)o3)cc2N(Cc2ccc(-c3noc(C(F)(F)F)n3)cc2)C1=O [Example 68, (3R)-3-amino-7-[5-(4,4-difluoro-1-piperidyl)-1,3,4-oxadiazol-2-yl]-1,1-dioxo-5-[[4-[5-(trifluoromethyl)-1,2,4-oxadiazol-3-yl]phenyl]methyl]-2,3-dihydro-1λ^6,5-benzothiazepin-4-one]	351	1.16
11.8	1.26	N[C@H]1CS(=O)(=O)c2ccc(-c3nnc(N4CCOC(F)(F)C4)o3)cc2N(Cc2ccc(-c3nnc(C(F)(F)F)o3)cc2)C1=O [Example 80]	360	3.54
0.762	0.183	CC(C)(C#N)c1nnc(-c2cc3c(cc2F)S(=O)(=O)C[C@H](N)C(=O)N3Cc2ccc(-c3ccc(C(F)(F)F)cn3)cc2)o1 [Example 88, 2-[5-[(3R)-3-amino-8-fluoro-1,1,4-trioxo-5-[[4-[5-(trifluoromethyl)-2-pyridyl]phenyl]methyl]-2,3-dihydro-1λ^6,5-benzothiazepin-7-yl]-1,3,4-oxadiazol-2-yl]-2-methyl-propanenitrile]	121	0.264
23.9	2.14	CC(C)(C)c1nnc(-c2ccc3c(c2)N(Cc2ccc(-n4nnc(C(F)(F)F)n4)cc2)C(=O)[C@@H](N)CS3(=O)=O)o1 [Example 90, (3R)-3-amino-7-(5-tert-butyl-1,3,4-oxadiazol-2-yl)-1,1-dioxo-5-[[4-[5-(trifluoromethyl)tetrazol-2-yl]phenyl]methyl]-2,3-dihydro-1λ^6,5-benzothiazepin-4-one]	159	1.01
17.5	1.71	Cn1nc(C(F)(F)F)cc1-c1ccc(CN2C(=O)[C@@H](N)CS(=O)(=O)c3ccc(-c4nnc(C(C)(C)C)o4)cc32)cc1 [Example 92]	157	2
0.884	0.485	CC(C)(C)c1nnc(-c2ccc3c(c2)N(Cc2ccc(-c4ncc(C(F)(F)F)o4)cc2)C(=O)[C@@H](N)CS3(=O)=O)o1 [Example 93, (3R)-3-amino-7-(5-tert-butyl-1,3,4-oxadiazol-2-yl)-1,1-dioxo-5-[[4-[5-(trifluoromethyl)oxazol-2-yl]phenyl]methyl]-2,3-dihydro-1λ^6,5-benzothiazepin-4-one]	279	0.202
> 60	9.19	NC(c1nnc(-c2ccc3c(c2)N(Cc2ccc(-c4noc(C(F)(F)F)n4)cc2)C(=O)[C@@H](N)CS3(=O)=O)o1)C(F)(F)F (some centres unmarked) [Example 94]	76	2.66
19	2.42	CCC(O)(c1nnc(-c2ccc3c(c2)N(Cc2ccc(-c4noc(C(F)(F)F)n4)cc2)C(=O)[C@@H](N)CS3(=O)=O)o1)C(F)(F)F (some centres unmarked) [Example 95]	172	0.807
24.6	3.38	CC(O)(c1nnc(-c2ccc3c(c2)N(Cc2ccc(-c4noc(C(F)(F)F)n4)cc2)C(=O)[C@@H](N)CS3(=O)=O)o1)C(F)(F)F (stereo partly drawn) [Example 96, (3R)-3-amino-1,1-dioxo-7-[5-(2,2,2-trifluoro-1-hydroxy-1-methyl-ethyl)-1,3,4-oxadiazol-2-yl]-5-[[4-[5-(trifluoromethyl)-1,2,4-oxadiazol-3-yl]phenyl]methyl]-2,3-dihydro-1λ^6,5-benzothiazepin-4-one]	232	1.36
> 62.5	1.46	CC(C)(C#N)c1nnc(-c2ccc3c(c2)N(Cc2ccc(-c4cnc(C(F)(F)F)nc4)cc2)C(=O)[C@@H](N)CS3(=O)=O)o1 [Example 100]	100	3.22
25.6	0.192	CC(C)(C#N)c1nnc(-c2ccc3c(c2)N(Cc2ccc(-c4noc(C5CCC(F)(F)CC5)n4)cc2)C(=O)[C@@H](N)CS3(=O)=O)o1 [Example 101, 2-[5-[(3R)-3-amino-5-[[4-[5-(4,4-difluorocyclohexyl)-1,2,4-oxadiazol-3-yl]phenyl]methyl]-1,1,4-trioxo-2,3-dihydro-1λ^6,5-benzothiazepin-7-yl]-1,3,4-oxadiazol-2-yl]-2-methyl-propanenitrile]	429	3.65
1.12	0.747	CC(C)(C#N)c1nnc(-c2ccc3c(c2)N(Cc2ccc(-n4cc(C(F)(F)F)cn4)cc2)C(=O)[C@@H](N)CS3(=O)=O)o1 [Example 102, 2-[5-[(3R)-3-amino-1,1,4-trioxo-5-[[4-[4-(trifluoromethyl)pyrazol-1-yl]phenyl]methyl]-2,3-dihydro-1λ^6,5-benzothiazepin-7-yl]-1,3,4-oxadiazol-2-yl]-2-methyl-propanenitrile]	143	0.635
0.694	0.787	CC(C)(C#N)c1nnc(-c2ccc3c(c2)N(Cc2ccc(-c4ncc(C(F)(F)F)o4)cc2)C(=O)[C@@H](N)CS3(=O)=O)o1 [Example 105, 2-[5-[(3R)-3-amino-1,1,4-trioxo-5-[[4-[5-(trifluoromethyl)oxazol-2-yl]phenyl]methyl]-2,3-dihydro-1λ^6,5-benzothiazepin-7-yl]-1,3,4-oxadiazol-2-yl]-2-methyl-propanenitrile]	146	0.999
14.4	2.37	CC(C)(C#N)c1nnc(-c2ccc3c(c2)N(Cc2ccc(-c4ccc(C(F)(F)F)cc4)nc2)C(=O)[C@@H](N)CS3(=O)=O)o1 [Example 106]	121	3.84
1.3	0.843	Cn1nc(C(F)(F)F)cc1-c1ccc(CN2C(=O)[C@@H](N)CS(=O)(=O)c3ccc(-c4nnc(C(C)(C)C#N)o4)cc32)cc1 [Example 107, 2-[5-[(3R)-3-amino-5-[[4-[2-methyl-5-(trifluoromethyl)pyrazol-3-yl]phenyl]methyl]-1,1,4-trioxo-2,3-dihydro-1λ^6,5-benzothiazepin-7-yl]-1,3,4-oxadiazol-2-yl]-2-methyl-propanenitrile]	241	1.39
1.39	0.939	CC(C)(C#N)c1nnc(-c2ccc3c(c2)N(Cc2ccc(-c4ccc(OC(F)F)cn4)cc2)C(=O)[C@@H](N)CS3(=O)=O)o1 [Example 108, 2-[5-[(3R)-3-amino-5-[[4-[5-(difluoromethoxy)-2-pyridyl]phenyl]methyl]-1,1,4-trioxo-2,3-dihydro-1λ^6,5-benzothiazepin-7-yl]-1,3,4-oxadiazol-2-yl]-2-methyl-propanenitrile]	245	1.56
2.11	0.864	CC(F)(F)c1ccc(-c2ccc(CN3C(=O)[C@@H](N)CS(=O)(=O)c4ccc(-c5nnc(C(C)(C)C#N)o5)cc43)cc2)nc1 [Example 109, 2-[5-[(3R)-3-amino-5-[[4-[5-(1,1-difluoroethyl)-2-pyridyl]phenyl]methyl]-1,1,4-trioxo-2,3-dihydro-1λ^6,5-benzothiazepin-7-yl]-1,3,4-oxadiazol-2-yl]-2-methyl-propanenitrile]	360	3.4
> 60	0.507	CC(C)(C#N)c1nnc(-c2ccc3c(c2)N(Cc2ccc(-c4cc(OC(F)F)ccn4)cc2)C(=O)[C@@H](N)CS3(=O)=O)o1 [Example 110, 2-[5-[(3R)-3-amino-5-[[4-[4-(difluoromethoxy)-2-pyridyl]phenyl]methyl]-1,1,4-trioxo-2,3-dihydro-1λ^6,5-benzothiazepin-7-yl]-1,3,4-oxadiazol-2-yl]-2-methyl-propanenitrile]	85	4.11
> 62.5	1.13	CC(C)(C#N)c1nnc(-c2ccc3c(c2)N(Cc2ccc(-c4ccnc(C(F)(F)F)c4)cc2)C(=O)[C@@H](N)CS3(=O)=O)o1 [Example 111, 2-[5-[(3R)-3-amino-1,1,4-trioxo-5-[[4-[2-(trifluoromethyl)-4-pyridyl]phenyl]methyl]-2,3-dihydro-1λ^6,5-benzothiazepin-7-yl]-1,3,4-oxadiazol-2-yl]-2-methyl-propanenitrile]	151	1.86
1.75	0.473	CC(C)(C#N)c1nnc(-c2ccc3c(c2)N(Cc2ccc(-c4cnc(OC(F)(F)F)cn4)cc2)C(=O)[C@@H](N)CS3(=O)=O)o1 [Example 112]	139	0.832
